US11891365B2, “3-alkyl-4-amido-bicyclic [4,5,0] hydroxamic acids as HDAC inhibitors” (Valo Health, Inc., priority 2015, dated 2024)

Target: T1, Full length human recombinant HDAC6 protein (Homo sapiens, UniProt Q9UBN7)
T1 sequence (Q9UBN7 1-1215): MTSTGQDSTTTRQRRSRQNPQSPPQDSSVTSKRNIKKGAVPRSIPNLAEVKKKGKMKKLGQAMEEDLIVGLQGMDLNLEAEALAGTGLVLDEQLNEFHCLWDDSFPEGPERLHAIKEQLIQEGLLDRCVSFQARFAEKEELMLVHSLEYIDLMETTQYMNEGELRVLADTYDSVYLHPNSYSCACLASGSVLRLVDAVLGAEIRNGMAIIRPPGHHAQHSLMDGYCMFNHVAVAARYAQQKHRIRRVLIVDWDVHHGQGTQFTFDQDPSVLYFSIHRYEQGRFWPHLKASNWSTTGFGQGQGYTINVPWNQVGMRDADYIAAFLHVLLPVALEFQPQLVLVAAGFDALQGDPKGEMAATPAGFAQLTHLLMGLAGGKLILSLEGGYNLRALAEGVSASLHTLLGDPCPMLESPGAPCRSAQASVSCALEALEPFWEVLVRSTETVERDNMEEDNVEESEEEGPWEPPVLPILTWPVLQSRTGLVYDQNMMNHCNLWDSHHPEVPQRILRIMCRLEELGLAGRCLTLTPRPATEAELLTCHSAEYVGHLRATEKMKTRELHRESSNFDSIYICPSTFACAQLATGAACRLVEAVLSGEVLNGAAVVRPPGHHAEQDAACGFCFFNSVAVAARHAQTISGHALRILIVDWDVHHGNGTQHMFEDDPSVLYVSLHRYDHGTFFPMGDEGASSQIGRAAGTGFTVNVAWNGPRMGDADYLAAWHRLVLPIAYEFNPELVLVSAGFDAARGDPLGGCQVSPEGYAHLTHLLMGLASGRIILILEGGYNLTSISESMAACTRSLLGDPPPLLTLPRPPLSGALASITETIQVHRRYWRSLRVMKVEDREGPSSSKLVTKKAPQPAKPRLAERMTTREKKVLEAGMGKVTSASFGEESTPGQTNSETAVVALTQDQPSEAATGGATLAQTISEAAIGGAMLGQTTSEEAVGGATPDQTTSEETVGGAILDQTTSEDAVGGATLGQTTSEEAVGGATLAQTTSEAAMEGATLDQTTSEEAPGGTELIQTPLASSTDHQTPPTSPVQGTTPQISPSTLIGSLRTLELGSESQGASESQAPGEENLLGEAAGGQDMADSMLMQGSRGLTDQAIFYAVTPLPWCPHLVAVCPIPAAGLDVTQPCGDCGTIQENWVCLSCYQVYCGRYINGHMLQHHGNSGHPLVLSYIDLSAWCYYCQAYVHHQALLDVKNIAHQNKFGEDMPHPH
Assay: In vitro histone deacetylase assay: enzymatic HDAC6 electrophoretic mobility shift assay
Type: biochemical
Settings: 1 nM enzyme, 2 μM peptide substrate RHKK(Ac)-NH2, 25° C., 12 concentrations; read-out: Inhibitory Concentration (IC50) Values against HDAC6, Activity Range
Experimental: The enzymatic HDAC6 assay was performed using electrophoretic mobility shift assay. […] The enzymatic reactions were assembled in 384 well plates in a total volume of 25 μL in a reaction buffer composing: 100 mM HEPES, pH7.5, 25 mM KCl, 0.1% bovine serum albumin, 0.01% Triton X-100, 1% DMSO (from compounds) 2 μM of the fluorescently labeled peptide substrate and enzyme. The enzyme was added at a final concentration of 1 nM. The peptide substrate RHKK(Ac)—NH2 was used. The compounds were tested at 12 concentrations spaced by 3× dilution intervals. Negative control samples ([…] in the absence of inhibitor) and positive control samples (100%-inhibition) were assembled in replicates of four in each assay plate. The reactions were incubated at 25° C. and quenched by the addition of 45 μL of termination buffer (100 mM HEPES, pH 7.5, 0.01% Triton X-100, 0.05% SDS).
The terminated assay plates were analyzed on LabChip® 3000 microfluidic electrophoresis instrument (Perkin Elmer/Caliper Life Sciences). The fluorescence intensity of the electrophoretically separated de-acetylated product and substrate peptide was measured. Activity in each sample was determined as the product to sum ratio (PSR): P/(S+P), where P is the peak height of the product peptide and S is the peak height of the substrate peptide. Percent inhibition (Pinh) is determined using the following equation:
Pinh=(PSR0%−PSRinh)/(PSR0%−PSR100%)*100, where PSRinh is the product sum ratio in the presence of inhibitor, PSR0% is the average product sum ration in the absence of inhibitor and PSR100% is the average product sum ratio in 100%-inhibition control samples. The IC50 values of inhibitors were determined by fitting the %-inhibition curves with 4 parameter dose-response model using XLfit 4 software.

IC50	Structure (SMILES)
≤ 100 nM	CO[C@H]1C[C@H](C(=O)N2Cc3ccc(C(=O)NO)cc3OC[C@@H]2C)C1
≤ 100 nM	CO[C@H]1C[C@@H](C(=O)N2Cc3ccc(C(=O)NO)cc3OC[C@@H]2C)C1
≤ 100 nM	C[C@H]1COc2cc(C(=O)NO)ccc2CN1C(=O)[C@H]1C[C@H](Oc2ccccc2)C1 (single isomer, unassigned)
≤ 100 nM	C[C@H]1COc2cc(C(=O)NO)ccc2CN1C(=O)C1CCC(OC(F)(F)F)CC1 (single isomer, unassigned) [listing 1 of 2 here]
≤ 100 nM	C[C@H]1COc2cc(C(=O)NO)ccc2CN1C(=O)C1CC(Oc2ccccc2)C1 (single isomer, unassigned)
≤ 100 nM	C[C@H]1COc2cc(C(=O)NO)ccc2CN1C(=O)C1CCC(OC(F)(F)F)CC1 (single isomer, unassigned) [listing 2 of 2 here]
≤ 100 nM	CO[C@H]1CC[C@H](C(=O)N2CCOc3cc(C(=O)NO)ccc3[C@@H]2C)CC1 (single isomer, unassigned)
≤ 100 nM	COC1CCC(C(=O)N2Cc3ccc(C(=O)NO)cc3OC[C@@H]2C)CC1 (single isomer, unassigned) [listing 1 of 2 here]
≤ 100 nM	COC1CCC(C(=O)N2Cc3ccc(C(=O)NO)cc3OC[C@@H]2C)CC1 (single isomer, unassigned) [listing 2 of 2 here]
≤ 100 nM	CO[C@H]1CC[C@@H](C(=O)N2CCOc3cc(C(=O)NO)ccc3[C@@H]2C)CC1 (single isomer, unassigned)
≤ 100 nM	O=C(NO)c1ccc2c(c1)OCCN(C(=O)C1CCS(=O)(=O)CC1)C2 [4-(1,1-dioxidotetrahydro-2H-thiopyran-4-carbonyl)-N-hydroxy-2,3,4,5-tetrahydrobenzo[f][1,4]oxazepine-8-carboxamide]
≤ 100 nM	O=C(NO)c1ccc2c(c1)OCCN(C(=O)C1(c3ccccc3Cl)CC1)C2 [4-(1-(2-chlorophenyl)cyclopropane-1-carbonyl)-N-hydroxy-2,3,4,5-tetrahydrobenzo[f][1,4]oxazepine-8-carboxamide]
≤ 100 nM	O=C(NO)c1ccc2c(c1)OCCN(C(=O)C1(c3cccc(Cl)c3)CC1)C2 [4-(1-(3-chlorophenyl)cyclopropane-1-carbonyl)-N-hydroxy-2,3,4,5-tetrahydrobenzo[f][1,4]oxazepine-8-carboxamide]
≤ 100 nM	O=C(NO)c1ccc2c(c1)OCCN(C(=O)C1(c3ccc(Cl)cc3)CC1)C2 [4-(1-(4-chlorophenyl)cyclopropane-1-carbonyl)-N-hydroxy-2,3,4,5-tetrahydrobenzo[f][1,4]oxazepine-8-carboxamide]
≤ 100 nM	O=C(NO)c1ccc2c(c1)OCCN(C(=O)C1(c3ccc(F)cc3)CC1)C2 [4-(1-(4-fluorophenyl)cyclopropane-1-carbonyl)-N-hydroxy-2,3,4,5-tetrahydrobenzo[f][1,4]oxazepine-8-carboxamide]
≤ 100 nM	O=C(NO)c1ccc2c(c1)OCCN(C(=O)C1(Cn3ccnc3)CC1)C2 [4-(1-((1H-imidazol-1-yl)methyl)cyclopropane-1-carbonyl)-N-hydroxy-2,3,4,5-tetrahydrobenzo[f][1,4]oxazepine-8-carboxamide]
≤ 100 nM	O=C(NO)c1ccc2c(c1)OCCN(C(=O)C1(Cn3cccn3)CC1)C2 [4-(1-((1H-pyrazol-1-yl)methyl)cyclopropane-1-carbonyl)-N-hydroxy-2,3,4,5-tetrahydrobenzo[f][1,4]oxazepine-8-carboxamide]
≤ 100 nM	CC(=O)N1CCCC(C(=O)N2CCOc3cc(C(=O)NO)ccc3C2)C1 (centres unmarked) [4-(1-acetylpiperidine-3-carbonyl)-N-hydroxy-2,3,4,5-tetrahydrobenzo[f][1,4]oxazepine-8-carboxamide]
100 to 500 nM	CC(=O)N1CCC(C(=O)N2CCOc3cc(C(=O)NO)ccc3C2)C1 (centres unmarked) [4-(1-acetylpyrrolidine-3-carbonyl)-N-hydroxy-2,3,4,5-tetrahydrobenzo[f][1,4]oxazepine-8-carboxamide]
≤ 100 nM	O=C(NO)c1ccc2c(c1)OCCN(C(=O)C1(Cc3ccccc3)CC1)C2 [4-(1-benzylcyclopropane-1-carbonyl)-N-hydroxy-2,3,4,5-tetrahydrobenzo[f][1,4]oxazepine-8-carboxamide]
